{"source": "patent US8399438B2", "about": "“2α-methyl-19-nor-1α-hydroxy-homopregnacalciferol and its uses” (Wisconsin Alumni Research Foundation, priority 2004, dated 2013)", "key": {"[1]": {"target": "T1, full-length recombinant rat vitamin D receptor (Rattus norvegicus, UniProt P13053)", "T1 construct": "Full-length recombinant rat receptor was expressed in E. coli; histidine tag (C); made in house; host or cells: E. coli BL21 (DE3) Codon Plus RIL", "T1 sequence (P13053 1-423)": "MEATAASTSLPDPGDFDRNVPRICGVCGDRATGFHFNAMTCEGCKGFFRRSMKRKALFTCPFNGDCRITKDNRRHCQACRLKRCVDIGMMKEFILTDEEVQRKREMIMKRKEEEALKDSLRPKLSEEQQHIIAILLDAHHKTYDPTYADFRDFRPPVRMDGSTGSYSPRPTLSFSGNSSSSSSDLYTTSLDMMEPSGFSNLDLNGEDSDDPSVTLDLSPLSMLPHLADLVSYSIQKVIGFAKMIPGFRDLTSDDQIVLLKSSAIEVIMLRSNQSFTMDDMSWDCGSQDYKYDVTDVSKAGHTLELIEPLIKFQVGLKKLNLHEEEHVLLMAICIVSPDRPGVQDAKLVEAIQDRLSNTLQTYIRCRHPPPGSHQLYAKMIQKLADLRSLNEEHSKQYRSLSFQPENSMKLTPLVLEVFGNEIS", "assay": "Vitamin D receptor binding, competition with [3H]-1,25(OH)2D3", "details": "FIG. 1", "description": "Full-length recombinant rat receptor was expressed in E. coli BL21 (DE3) Codon Plus RIL cells and purified to homogeneity using two different column chromatography systems. The first system was a nickel affinity resin that utilizes the C-terminal histidine tag on this protein. The protein that was eluted from this resin was further purified using ion exchange chromatography (S-Sepharose Fast Flow). Aliquots of the purified protein were quick frozen in liquid nitrogen and stored at −80° C. until use. For use in binding assays, the protein was diluted in TEDK50 (50 mM Tris, 1.5 mM EDTA, pH7.4, 5 mM DTT, 150 mM KCl) with 0.1% Chaps detergent. The receptor protein and ligand concentration were optimized such that no more than 20% of the added radiolabeled ligand was bound to the receptor.\nRadiolabeled and unlabeled ligands were added to 100 mcl of the diluted protein at a final ethanol concentration of ≦10%, mixed and incubated overnight on ice to reach binding equilibrium. The following day, 100 mcl of hydroxylapatite slurry (50%) was added to each tube and mixed at 10-minute intervals for 30 minutes. The hydroxylapaptite was collected by centrifugation and then washed three times with Tris-EDTA buffer (50 mM Tris, 1.5 mM EDTA, pH 7.4) containing 0.5% Titron X-100. […] Total binding was determined from the tubes containing only radiolabeled ligand."}, "[2]": {"tested_on": "Human promyelocytic leukemia (HL60) cells", "assay": "HL-60 differentiation (nitro blue tetrazolium reduction)", "format": "cell-based", "details": "FIG. 2; for EC50: HL60 cells, 4 days, NBT reduction", "description": "The study drugs were dissolved in ethanol and the concentrations determined using UV spectrophotometry. Serial dilutions were prepared so that a range of drug concentrations could be tested without changing the final concentration of ethanol (≦0.2%) present in the cell cultures.\nHuman promyelocytic leukemia (HL60) cells were grown in RPMI-1640 medium containing 10% fetal bovine serum. The cells were incubated at 37° C. in the presence of 5% CO2.\nHL60 cells were plated at 1.2×10^5 cells/ml. Eighteen hours after plating, cells in duplicate were treated with drug. Four days later, the cells were harvested and a nitro blue tetrazolium reduction assay was performed (Collins et al., 1979; J. Exp. Med. 149:969-974). The percentage of differentiated cells was determined by counting a total of 200 cells and recording the number that contained intracellular black-blue formazan deposits. Verification of differentiation to monocytic cells was determined by measuring phagocytic activity (data not shown)."}, "[3]": {"tested_on": "24-hydroxylase (24Ohase) gene promoter in ROS 17/2.8 (bone) cells", "assay": "In vitro transcription assay (24-hydroxylase promoter luciferase reporter)", "format": "cell-based", "details": "ROS 17/2.8 cells, 16 h, FIG. 3, read-out: EC50, transcriptional activity in bone cells", "description": "Transcription activity was measured in ROS 17/2.8 (bone) cells that were stably transfected with a 24-hydroxylase (24Ohase) gene promoter upstream of a luciferase reporter gene (Arbour et al., 1998). Cells were given a range of doses. Sixteen hours after dosing the cells were harvested and luciferase activities were measured using a luminometer.\nRLU=relative luciferase units."}, "Sprague-Dawley rats [4]": {"tested_on": "Sprague-Dawley rats", "assay": "Bone calcium mobilization (serum calcium) in vitamin D-deficient rats", "format": "in vivo, rat", "details": "for bone calcium mobilization (serum calcium): rats on 0.02% Ca diet", "description": "(§1) Male, weanling Sprague-Dawley rats were placed on Diet 11 (0.47% Ca) diet+AEK for one week followed by Diet 11 (0.02% Ca)+AEK for 3 weeks. The rats were then switched to a diet containing 0.47% Ca for one week followed by two weeks on a diet containing 0.02% Ca. Dose administration began during the last week on 0.02% calcium diet. Four consecutive ip doses were given approximately 24 hours apart. Twenty-four hours after the last dose, blood was collected from the severed neck and the concentration of serum calcium determined as a measure of bone calcium mobilization. The first 10 cm of the intestine was also collected for intestinal calcium transport analysis using the everted gut sac method."}, "Sprague-Dawley rats [5]": {"tested_on": "Sprague-Dawley rats", "assay": "Intestinal calcium transport (everted gut sac method) in vitamin D-deficient rats", "format": "in vivo, rat", "details": "for intestinal calcium transport: everted gut sac", "description": "as §1"}, "Sprague-Dawley rats [6]": {"tested_on": "Sprague-Dawley rats", "assay": "PTH suppression (bioactive serum PTH, ELISA)", "format": "in vivo, rat", "description": "Adult, female Sprague-Dawley rats were obtained from Harlan (Madison, Wis.). Upon receipt, the animals were identified by individual tail marks. Animals were housed in suspended, stainless steel, wire-bottom cages. Each cage contained one animal. The animal rooms were maintained at a temperature of 68 to 72° F. and a relative humidity of 25 to 75%. The holding rooms were set to provide 12 hours of light per day. Water and a purified rodent diet (Suda et al., Purified Rodent Diet-Diet 11) containing […] 0.3% phosphorus and fat soluble vitamins A, D, E and K were provided ad libitum. Treatment Groups Animals were randomly assigned to treatment groups (5 animals/group). All doses were administered intraperitoneally in 100 microliters of propylene glycol. Four to seven consecutive doses were given approximately 24 hours apart. Dosing was initiated after the animals had been allowed to acclimate for at least one week. Dose Preparation Control Material Negative Control Material […] The solution was mixed and then stored at 2 to 8° C. The analogs were prepared by first determining the concentration of an ethanol stock solution using UV spectrophotometry (extinction coefficient=42,000; λmax=252 nm). The analog solutions were then volumetrically added to propylene glycol so that there was less than 5% ethanol in the final solution. The solution was mixed and stored at 2 to 8° C. […] Serum PTH Levels. Twenty-four hours after the final dose, blood was collected from the tail artery and the concentration of bioactive serum PTH was measured using the rat BioActive Intact PTH ELISA Kit from Immutopics, Inc. (San Clemente, Calif.). Serum Calcium Analysis Twenty-four hours after the final dose, approximately 1 ml of blood was collected from the tail artery of each experimental animal. The blood was allowed to coagulate at room temperature and then centrifuged at 3000×g for 15 minutes. The serum was transferred to a polypropylene tube and stored frozen at −20° C. The level of calcium was determined by diluting the serum into 0.1% lanthum chloride and measuring the absorbance on an atomic absorption spectrophotometer (Perkin Elmer Model 3110, Shelton, Conn.)."}}}
{"smiles": "CC(C)C1CCC2C(=CC=C3CC(O)C(C)C(O)C3)CCCC21C", "note": "(stereo not drawn) [2α-methylP, 2α-methyl-19-nor-1α-hydroxy-homopregnacalciferol]", "values": [{"measurement": "VDR binding compared to 1,25-(OH)2D3 (in words)", "setting": "[1]", "result": "bound equally well"}, {"measurement": "Ki", "setting": "[1]; full-length recombinant rat VDR", "result": 0.94, "unit": "nM"}, {"measurement": "HL-60 cell differentiation potency compared to 1,25(OH)2D3 (in words)", "setting": "[2]", "result": "almost as potent as 1,25(OH)2D3"}, {"measurement": "EC50", "setting": "[2]; Homo sapiens, HL-60, 96 h", "result": 38, "unit": "nM"}, {"measurement": "EC50", "setting": "[3]", "result": 3.3, "unit": "nM"}, {"measurement": "bone calcium mobilization (serum calcium)", "setting": "Sprague-Dawley rats [4]; 87 pmol/day ip, 4 consecutive days", "result": "did not result in mobilization of bone calcium"}, {"measurement": "bone calcium mobilization (serum calcium)", "setting": "Sprague-Dawley rats [4]; 260 pmol/day ip, 4 consecutive days", "result": "without any substantial effect"}, {"measurement": "bone calcium mobilization (serum calcium)", "setting": "Sprague-Dawley rats [4]; 780 pmol/day ip, 4 consecutive days", "result": "without any substantial effect"}, {"measurement": "bone calcium mobilization (serum calcium)", "setting": "Sprague-Dawley rats [4]; 2340 pmol/day ip, 4 consecutive days", "result": "without any substantial effect"}, {"measurement": "bone calcium mobilization activity compared to 1,25(OH)2D3 (in words)", "setting": "Sprague-Dawley rats [4]; overall, FIG. 4", "result": "very little bone calcium mobilization activity"}, {"measurement": "intestinal calcium transport", "setting": "Sprague-Dawley rats [5]; 87 pmol/day ip", "result": "does not promote intestinal calcium transport"}, {"measurement": "intestinal calcium transport", "setting": "Sprague-Dawley rats [5]; 260 pmol/day ip", "result": "does not promote intestinal calcium transport"}, {"measurement": "intestinal calcium transport", "setting": "Sprague-Dawley rats [5]; 780 pmol/day ip", "result": "does not promote intestinal calcium transport"}, {"measurement": "intestinal calcium transport", "setting": "Sprague-Dawley rats [5]; 2340 pmol/day ip", "result": "does not promote intestinal calcium transport"}, {"measurement": "intestinal calcium transport activity compared to 1,25(OH)2D3 (in words)", "setting": "Sprague-Dawley rats [5]; overall, FIG. 5", "result": "very little activity"}, {"measurement": "PTH suppression", "setting": "Sprague-Dawley rats [6]; 500 pmol/day ip, 7 consecutive days", "result": "about 20%"}, {"measurement": "PTH suppression", "setting": "Sprague-Dawley rats [6]; 1500 pmol/day ip, 7 consecutive days", "result": "about 20%"}, {"measurement": "PTH suppression", "setting": "Sprague-Dawley rats [6]; 4500 pmol/day ip, 7 consecutive days", "result": "about 60%"}, {"measurement": "PTH suppression compared to 1,25(OH)2D3 (in words)", "setting": "Sprague-Dawley rats [6]; FIG. 6", "result": "not as potently as 1,25(OH)2D3"}]}
{"smiles": "C=C1/C(=C\\C=C2/CCC[C@]3(C)[C@@H]([C@H](C)CCCC(C)(C)O)CC[C@@H]23)C[C@@H](O)C[C@@H]1O", "note": "[1,25(OH)2D3, 1α,25-dihydroxyvitamin D3, reference compound]", "values": [{"measurement": "EC50", "setting": "[2]", "result": 3.6, "unit": "nM"}, {"measurement": "EC50", "setting": "[3]", "result": 0.29, "unit": "nM"}, {"measurement": "bone calcium mobilization (serum calcium)", "setting": "Sprague-Dawley rats [4]; all dosages tested", "result": "increased serum calcium levels"}, {"measurement": "intestinal calcium transport", "setting": "Sprague-Dawley rats [5]; 260 pmol/day ip", "result": "promotes a significant increase"}, {"measurement": "PTH suppression", "setting": "Sprague-Dawley rats [6]; 100 pmol/day ip, 4 consecutive days", "result": 100, "unit": "%"}]}
